Data taken from publication PMC5677090, “Multiple Behavior Phenotypes of the Fragile-X Syndrome Mouse Model Respond to Chronic Inhibition of Phosphodiesterase-4D (PDE4D)” (Scientific Reports, 2017).
pIC50: −log10 of the molar value.

Target: T1, PDE4B (Mus musculus, UniProt Q8VBU5)
T1 sequence (Q8VBU5 1-721): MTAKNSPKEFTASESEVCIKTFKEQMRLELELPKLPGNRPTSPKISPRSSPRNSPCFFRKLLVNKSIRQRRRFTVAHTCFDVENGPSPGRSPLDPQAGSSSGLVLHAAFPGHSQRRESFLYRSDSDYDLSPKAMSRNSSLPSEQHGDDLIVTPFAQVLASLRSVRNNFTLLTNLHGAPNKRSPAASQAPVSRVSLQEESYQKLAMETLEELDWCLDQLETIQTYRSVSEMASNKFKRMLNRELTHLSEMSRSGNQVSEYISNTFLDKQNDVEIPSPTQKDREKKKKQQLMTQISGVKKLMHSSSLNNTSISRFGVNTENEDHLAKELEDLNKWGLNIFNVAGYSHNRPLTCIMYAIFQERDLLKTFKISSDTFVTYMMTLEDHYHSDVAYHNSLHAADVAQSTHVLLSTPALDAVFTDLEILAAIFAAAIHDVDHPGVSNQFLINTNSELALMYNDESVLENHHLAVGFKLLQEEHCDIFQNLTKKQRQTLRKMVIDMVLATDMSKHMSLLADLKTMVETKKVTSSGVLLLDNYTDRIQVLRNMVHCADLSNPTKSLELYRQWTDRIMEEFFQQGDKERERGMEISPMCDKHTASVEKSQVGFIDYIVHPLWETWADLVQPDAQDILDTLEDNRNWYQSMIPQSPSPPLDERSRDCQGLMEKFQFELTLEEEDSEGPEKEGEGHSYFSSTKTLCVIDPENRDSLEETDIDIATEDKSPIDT
Experiment: PDE4B inhibition IC50, selectivity comparison (assay details not given)
Format: biochemical

**Q.** With `O=C(O)Cc1ccc(Cc2cc(-c3cccc(Cl)c3)nc(C(F)(F)F)c2)cc1` [BPN14770] as the molecule, how does the pIC50 read?
**A.** 5.67
